Measurements: paper PMC6753678, “Fueling Open Innovation for Malaria Transmission-Blocking Drugs: Hundreds of Molecules Targeting Early Parasite Mosquito Stages” (Frontiers in Microbiology, 2019)
Read-outs that look alike come from different tables or passages of the source.

What was measured:
[1] = tested on: P. falciparum late stage (stages IV-V) gametocytes; set-up: method as in Almela et al 2016; conditions: ref Almela et al 2016, read-out: Pf GCT ATP IC50, cited from earlier work
HepG2 cells [2] = conditions: cited from earlier work
HepG2 cells [3] = assay: HepG2 cytotoxicity assay
Procedure, shortened: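 Percent inhibition derived from fluorescent viability readout, normalised to DMSO (negative) and 50 μM doxorubicin (positive). Compound incubation lasted 48 h at 37°C, 5% CO2, with 2,500 HepG2 cells/well in MEM plus 10% FBS and 1% NEAA.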

[4] = tested on: P. falciparum female gametocytes; assay: P. falciparum female gametogenesis assay (Pf FGAA); conditions: 1: YES; 0: NO
[5] = tested on: P. falciparum female gametocytes; set-up: method as in Miguel-Blanco et al 2017; conditions: ref Miguel-Blanco et al 2017, read-out: Pf FGAA IC50, cited from earlier work
[6] = tested on: P. falciparum late stage (stages IV-V) gametocytes; assay: P. falciparum late stage gametocyte ATP depletion assay (Pf GC-ATP); conditions: 1: YES; 0: NO
[7] = tested on: 3D7-strain P. falciparum asexual parasites; assay: P. falciparum asexual growth inhibition assay (Pf GIA); type: cell-based, Plasmodium falciparum; conditions: dose response confirmation; read-out: Pf asexual growth inhibition assays IC50
Procedure, shortened: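 LDH readout: absorbance at 650 nm after 10 min at room temperature with lactate/APAD/NBT/diaphorase mix on thawed plates. Cultures (0.25% parasitemia, 2% hematocrit) were treated 72 h at 37°C in low-oxygen gas. Inhibition was normalised to 50 μM chloroquine and DMSO; n=3 biological replicates.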

[8] = tested on: P. berghei ookinete development
[9] = value reported with the Pf FGAA screen, ref Miguel-Blanco et al 2017
[10] = value reported with the Pf GCT ATP screen, ref Almela et al 2016
[11] = HepG2 cytotoxicity unified across the three screens
[12] = HepG2 values of the three screens unified

SMILES	IC50 ([1]; TCAMS screen comparison) [nM]	HepG2 cytoxicity (HepG2 cells [2]; [9]) [µM]	HepG2 cytoxicity (HepG2 cells [2]; [10]) [µM]	Unified cytotox (HepG2 cells [3]; [11]) [µM]	Is compound selective in assay? Pf FGAA active? [4]	IC50 ([5]; TCAMS screen comparison) [nM]	Is compound selective in assay? Pf GC-ATP active? [6]	IC50 [1] [nM]	HepG2 cytoxicity (Pf GCT ATP screen) (HepG2 cells [2]; HepG2, ref Almela et al 2016) [µM]	HepG2 cytoxicity (Pf FGAA screen) (HepG2 cells [2]; HepG2, ref Miguel-Blanco et al 2017) [µM]	Unified cytotox (HepG2 cells [3]; [12]) [µM]	IC50 [5] [nM]	IC50 [7] [nM]	HepG2 cytoxicity (Pb ODA, this manuscript) (HepG2 cells [3]; HepG2, this manuscript) [µM]	IC50 (HepG2 cells [3]; read-out: HepG2 cytotoxicity assay IC50, dose response confirmation) [nM]	Is compound selective in assay? Pb ODA active? [8]	% inhibition, Replicate A ([8]; primary screen at 1 μM, replicate A) [%]	% inhibition, Replicate B ([8]; primary screen at 1 μM, replicate B) [%]	IC50 ([8]; read-out: Pb ODA IC50, this manuscript) [nM]	IC50 ([8]; read-out: Pb Ookinete development assay IC50, dose response confirmation) [nM]
CCN(CC)CCCn1c(N)c(-c2nc3ccccc3[nH]2)c2nc(C#N)c(C#N)nc21 [TCMDC-123680]	140	4.27	8.7	6.48	0 (0: NO)	740	1 (1: YES)													
Cc1c(Cn2ncc(N3CCC(N)CC3)c(Cl)c2=O)cccc1NC(=O)Nc1ccc(-c2ccccc2)cc1.O=C(O)C(F)(F)F [TCMDC-141931]	1180	22.90	14.5	18.70	1 (1: YES)	1090	1 (1: YES)													
Cl.Nc1c(I)cc(C(=O)Nc2ccc3nc4c(c(N)c3c2)CCCC4)cc1I [TCMDC-142289]	410	4.52	8.03	6.27	0 (0: NO)	780	1 (1: YES)													
COc1cc2nc(N3CCN(C(=O)c4c(Cl)nsc4-c4ccccc4Cl)CC3)nc(N)c2cc1OC.O=C(O)C(F)(F)F [TCMDC-138186]	220	5.89	8.18	7.04	0 (0: NO)	990	1 (1: YES)													
CN1CCN(CCCN(Cc2cccc(-c3ccc(CNCCc4ccccc4)cc3)c2)C(=O)c2cccs2)CC1.O=C(O)C(F)(F)F [TCMDC-140568]	890	5.98	5.6	5.79	0 (0: NO)	1710	0 (0: NO)													
CC(CNC(=N)c1cccc(C(=N)NCC(C)Oc2cccc(C3CCCCC3)c2)n1)Oc1cccc(C2CCCCC2)c1.Cl (stereo not shown) [TCMDC-137455]	240	2.16	3.53	2.85	0 (0: NO)	1270	1 (1: YES)													
CS(=O)(=O)O.CSc1ccc2ccccc2c1CCNCCCCNCCc1c(SC)ccc2ccccc12 [TCMDC-137763]	230	1.82	1.65	1.73	0 (0: NO)	1010	0 (0: NO)													
CC(C)(C)c1ccc(CN2CCC(CNC(=O)c3cc(-c4cccc(C(F)(F)F)c4)cs3)C2)cc1.O=C(O)C(F)(F)F (stereo not shown) [TCMDC-134442]	420	6.39	4.9	5.65	0 (0: NO)	950	1 (1: YES)													
COc1ccc2cc(CNCCCCCCNCc3ccc4cc(OC)ccc4c3)ccc2c1.CS(=O)(=O)O [TCMDC-137797]	670	1.55	3	2.27	0 (0: NO)	590	0 (0: NO)													
CS(=O)(=O)O.FC(F)(F)COc1ccc2ccccc2c1CNCCCCCCNCc1c(OCC(F)(F)F)ccc2ccccc12 [TCMDC-137816]	370	1.84	3.04	2.44	0 (0: NO)	1090	0 (0: NO)													
N=C(/N=C(/NCCCCCCN/C(=N\C(=N)Nc1ccc(Cl)cc1)N1CCCCC1)N1CCCCC1)Nc1ccc(Cl)cc1 [TCMDC-131811]	380	44.23	22.9	33.57	0 (0: NO)	7870	1 (1: YES)													
C[C@H](Cc1ccc(OCCCCCOc2ccc(C[C@@H](C)NC[C@H](O)c3cccc(Cl)c3)cc2)cc1)NC[C@H](O)c1cccc(Cl)c1.Cl [TCMDC-131563]	550	2.11	1.79	1.95	0 (0: NO)	960	0 (0: NO)													
CCCOc1ccc(CCNCCCCNCCc2ccc(OCCC)c3ccccc23)c2ccccc12.CS(=O)(=O)O [TCMDC-137952]	80	2.16	2.6	2.38	0 (0: NO)	610	1 (1: YES)													
COc1cc2ccccc2c(OC)c1CCNCCCCNCCc1c(OC)cc2ccccc2c1OC.CS(=O)(=O)O [TCMDC-137842]					0 (0: NO)		1 (1: YES)	310	3.2	4.17	3.68	1240								
Cc1sc2ncnc(Sc3nnc(N)s3)c2c1C [TCMDC-124542]	300	36.31	>25	36.31	1 (1: YES)	770	1 (1: YES)													
Cl.c1ccc2c(Nc3ccc(Cc4ccc(Nc5c6ccccc6nc6ccccc56)cc4)cc3)c3ccccc3nc2c1 [TCMDC-137354]	2300	3.85	4.49	4.17	0 (0: NO)	1040	0 (0: NO)													
COc1ccc(C[C@H]2NC[C@H](O)[C@H]2OC(C)=O)cc1 [TCMDC-125504]							0 (0: NO)	170	0.19		1.24		54	2.29	2290	0 (key: 1: YES; 0: NO)	102.72	96.40	210	215
